Patent publication US20230138395A1, “PHARMACEUTICAL COMPOSITIONS OF A THERAPEUTIC POLYENE MACROLIDE AND METHODS OF THEIR USE” (priority 2020, published 2023)
Converted amounts (≈) assume the structure as drawn. “And” between values parts separate entries of the source, which are not always exact repeats. Equal values may be shown once. Read-outs that look alike come from different tables or passages of the source.

Columns and labels:
[1] = tested on: individual Aspergillus spp. (Table 12, species not named); assay: MFC determination, Table 12; format: cell-based; conditions: Aspergillus sp. of Table 12; for MFC50: kills 50% of strains; for MFC90: kills 90% of strains
[2] = tested on: C. parapsilosis; assay: MIC testing (CLSI M27-A3); format: cell-based; set-up: MIC: unit not given beside the values; conditions: for MIC Range: C. parapsilosis strains, in µg/mL; for MIC50 / MIC90: C. parapsilosis; for MIC50: inhibits 50% of strains; for MIC90: inhibits 90% of strains
[3] = tested on: Paecilomyces strains; assay: MFC determination; format: cell-based, Paecilomyces spp.; conditions: Paecilomyces strains (5)
[4] = tested on: all Aspergillus strains tested; assay: MIC testing (CLSI M38-A2), summary; format: cell-based; conditions: caspofungin read as MEC; for MIC Range: in µg/mL; for MIC50: inhibits 50% of strains; for MIC90: inhibits 90% of strains
[5] = tested on: all Candida strains; assay: MIC testing (CLSI M27-A3), summary; format: cell-based; conditions: for MIC Range: in µg/mL; for MIC50: inhibits 50% of strains; for MIC90: inhibits 90% of strains
[6] = tested on: C. tropicalis; assay: MIC testing (CLSI M27-A3); format: cell-based; conditions: for MIC Range: C. tropicalis strains, in µg/mL; for MIC50 / MIC90: C. tropicalis; for MIC50: inhibits 50% of strains; for MIC90: inhibits 90% of strains
[7] = tested on: C. albicans SC5314; assay: In vitro activity (MFC) against the infecting strain, Example 18; format: cell-based, Candida albicans
[8] = tested on: individual Aspergillus spp. (Table 13, species not given); assay: MIC testing (CLSI M38-A2), Table 13; format: cell-based; conditions: Aspergillus sp. of Table 13, caspofungin read as MEC; for MIC Range: in µg/mL; for MIC50: inhibits 50% of strains; for MIC90: inhibits 90% of strains
[9] = tested on: C. tropicalis; assay: MFC determination; format: cell-based; conditions: for MFC Range: C. tropicalis strains, in µg/mL; for MFC50 / MFC90: C. tropicalis; for MFC50: kills 50% of strains; for MFC90: kills 90% of strains
[10] = tested on: Fusarium strains; assay: MIC testing (CLSI M38-A2), Table 17; format: cell-based, Fusarium spp.; conditions: Fusarium strains (Table 17); for MIC Range: in µg/mL; for MIC50: inhibits 50% of strains; for MIC90: inhibits 90% of strains
[11] = tested on: individual Aspergillus spp. (Table 12, species not named); assay: MIC testing (CLSI M38-A2), Table 12; format: cell-based; conditions: Aspergillus sp. of Table 12, caspofungin read as MEC; for MIC Range: in µg/mL; for MIC50: inhibits 50% of strains; for MIC90: inhibits 90% of strains
[12] = tested on: Candida albicans ATCC 10231; assay: MIC50 growth inhibition assay of compositions (OD600), Example 12; format: cell-based; conditions: concentration giving 50% growth inhibition
Description: Efficacy of the compositions was determined using Minimum Inhibitory Concentration assays, and the concentration of active compound giving 50% growth inhibition of the indicator organism was reported (MIC50). The assay was performed in well plates with two (Müller-Hinton medium) or three parallel (M19-medium) cell cultures for each condition.
Cell Culture Medium: Müller-Hinton and M19 without NaCl.
Indicator Organism: Candida albicans ATCC 10231
Stock Solutions of the Active Compounds and Control: • Amphotericin B (USP): vacuum dried powder was dissolved in DMSO to 2.5 mg/mL giving a final concentration after inoculation of 2.5 μg/mL in the well with the highest concentration. • compound 1A (custom made): powder was dissolved in DMSO to 2.5 mg/mL giving a final concentration after inoculation of 2.5 μg/ml compound 1A in the well with the highest concentration. It is assumed that the batch is 70% pure. • Example 3 composition: the formulation was a suspension with 18 mg/mL nanoparticles. The suspension was diluted in a medium and C. albicans inoculum to a final concentration of 5 μg/mL of compound 1A and 130 μg/mL of […]. From this solution 10 dilutions were prepared giving 0.009 μg/ml compound 1A in the lowest concentration. • Empty poly(ethylbutyl cyanoacrylate) particles: empty poly(ethylbutyl cyanoacrylate) particles were used as a reference. The empty poly(ethylbutyl cyanoacrylate) was produced in the same manner as those in Examples 2 and 3, with the exception that they were prepared at pH 1, with vanillin concentration of 10% (w/w), and. The particles were diluted in the same manner as Example 3. The highest poly(ethylbutyl cyanoacrylate) concentration tested was 130 μg/mL.
Growth measurements were performed at OD600.

[13] = tested on: C. glabrata strains; assay: MFC determination; format: cell-based; set-up: MFC: unit not given beside the values; conditions: for MFC Range: C. glabrata strains, in µg/mL; for MFC50 / MFC90: C. glabrata; for MFC50: kills 50% of strains; for MFC90: kills 90% of strains
[14] = tested on: C. glabrata strains; assay: MIC testing (CLSI M27-A3); format: cell-based; set-up: MIC: unit not given beside the values; conditions: for MIC Range: C. glabrata strains, in µg/mL; for MIC50 / MIC90: C. glabrata; for MIC50: inhibits 50% of strains; for MIC90: inhibits 90% of strains
[15] = tested on: individual Aspergillus spp. (Table 14, species not named); assay: MFC determination, Table 14; format: cell-based; conditions: Aspergillus sp. of Table 14; for MFC50: kills 50% of strains; for MFC90: kills 90% of strains
[16] = tested on: Cr. neoformans strains; assay: MFC determination; format: cell-based, Cryptococcus neoformans; conditions: for MFC50 / MFC90: Cr. neoformans; for MFC50: kills 50% of strains; for MFC90: kills 90% of strains
[17] = tested on: Fusarium strains; assay: MFC determination, Table 17; format: cell-based, Fusarium spp.; conditions: Fusarium strains (Table 17); for MFC Range: in µg/mL; for MFC50: kills 50% of strains; for MFC90: kills 90% of strains
[18] = Solubility of Compound 1A in lipids, oils and acrylate monomers; format: physicochemical
From the text: In General, the Constituents of a PACA Particle Contains: • Aqueous phase: Brij L35, Kolliphor HS15 and HCl to adjust pH • Oil phase: acrylate monomer (ethyl hexylcyanoacrylate, ethyl butylcyanoacrylate, 1-heptyl cyanoacrylate, and 2-phenylethyl cyanoacrylate/butyl cyanoacrylate), Miglyol, vanillin, Compound 1A.
Lipid-based particles were investigated as a vehicle for Compound 1A.

[19] = individual C. glabrata strain with elevated MICs to non-polyene comparators (Table 22)

With C[C@@H]1[C@H](O)[C@@H](C)/C=C/C=C/C=C/C=C/C=C/C=C/C=C/[C@H](O[C@@H]2O[C@H](C)[C@@H](O)[C@H](N)[C@@H]2O)C[C@@H]2O[C@](O)(C[C@@H](O)C[C@@H](O)[C@H](O)CC[C@@H](O)C[C@@H](O)CC(=O)O[C@H]1C)C[C@H](O)[C@H]2C(=O)O [Amphotericin B] the MFC50 [1] was 8 µg/mL (≈ 8.66 µM), the MFC90 [1] was > 32 µg/mL and the “MIC Range” value [2] was 0.125-1. The MIC50 [2] was 0.25 µg/mL (≈ 0.271 µM), the MIC90 [2] was 0.5 µg/mL (≈ 0.541 µM) and the MFC Range [3] was > 4 µg/mL. For the same compound, the “MIC Range” value [4] was 0.25-16, the MIC50 [4] was 1 µg/mL (≈ 1.08 µM) and the MIC90 [4] was 8 µg/mL (≈ 8.66 µM). The “MIC Range” value [5] was 0.125-1, the MIC50 [5] was 0.5 µg/mL (≈ 0.541 µM) and the MIC90 [5] was 0.5 µg/mL (≈ 0.541 µM). The “MIC Range” value [6] was 0.25-0.5, the MIC50 [6] was 0.25 µg/mL (≈ 0.271 µM) and the MIC90 [6] was 0.5 µg/mL (≈ 0.541 µM). The MFC [7] was 0.25 µg/mL (≈ 0.271 µM), the “MIC Range” value [8] was 1-2 and the MIC50 [8] was 1 µg/mL (≈ 1.08 µM). For the same compound, the MIC90 [8] was 2 µg/mL (≈ 2.16 µM), the “MFC Range” value [9] was 0.25-1 and the MFC50 [9] was 0.5 µg/mL (≈ 0.541 µM). The MFC90 [9] was 1 µg/mL (≈ 1.08 µM), the “MIC Range” value [10] was 0.5-2 and the MIC50 [10] was 1 µg/mL (≈ 1.08 µM). For the same compound, the MIC90 [10] was 2 µg/mL (≈ 2.16 µM), the “MIC Range” value [11] was 1-8 and the MIC50 [11] was 8 µg/mL (≈ 8.66 µM). The MIC90 [11] was 8 µg/mL (≈ 8.66 µM), the MIC50 ([12]; M19 medium) was 0.34 µg/mL (≈ 0.368 µM) and the MIC50 ([12]; Müller-Hinton medium) was 0.04 µg/mL (≈ 0.0433 µM). For the same compound, the “MFC Range” value [13] was 0.5-1, the MFC50 [13] was 0.5 µg/mL (≈ 0.541 µM) and the MFC90 [13] was 1 µg/mL (≈ 1.08 µM). For the same compound, the “MIC Range” value [14] was 0.125-1, the MIC50 [14] was 0.5 µg/mL (≈ 0.541 µM) and the MIC90 [14] was 0.5 µg/mL (≈ 0.541 µM). The MFC50 [15] was 2 µg/mL (≈ 2.16 µM), the MFC90 [15] was > 8 µg/mL and the “MFC Range” value ([16]; Cr. neoformans strains, in µg/mL) was 0.25-2. The MFC50 [16] was 0.5 µg/mL (≈ 0.541 µM), the MFC90 [16] was 1 µg/mL (≈ 1.08 µM) and the “MFC Range” value [17] was 1-4. For the same compound, the MFC50 [17] was 2 µg/mL (≈ 2.16 µM) and the MFC90 [17] was 2 µg/mL (≈ 2.16 µM).

For C[C@@H]1[C@H](O)[C@@H](C)/C=C/C=C/C=C/C=C/C=C/C=C/C=C/[C@H](O[C@@H]2O[C@H](C)[C@@H](O)[C@H](N)[C@@H]2O)C[C@@H]2O[C@](O)(C[C@@H](O)[C@H](O)CC[C@@H](O)C[C@@H](O)C[C@@H](O)CC(=O)O[C@H]1C)C[C@H](O)[C@H]2C [Compound 1A], the solubility ([18]; in 1-heptyl cyanoacrylate and 2-phenylethyl cyanoacrylate/butyl cyanoacrylate) was “unable to dissolve”, the solubility ([18]; in the tested oils and lipids listed) was “None of the tested oils or lipids dissolved Compound 1A well” and the solubility ([18]; in trans-cinnamaldehyde) was “somewhat soluble”. The MFC50 [1] was 4 µg/mL (≈ 4.47 µM), the MFC90 [1] was > 4 µg/mL and the “MIC Range” value [2] was 0.25-2. The MIC50 [2] was 0.25 µg/mL (≈ 0.28 µM), the MIC90 [2] was 2 µg/mL (≈ 2.24 µM) and the MIC ([2]; individual C. parapsilosis strain with elevated MICs to non-polyene comparators (Table 22)) was 0.5 (2×) and 1. The “MIC Range” value [4] was 0.5-4, the MIC50 [4] was 2 µg/mL (≈ 2.24 µM) and the MIC90 [4] was 2 µg/mL (≈ 2.24 µM). For the same compound, the “MIC Range” value [5] was 0.125-8, the MIC50 [5] was 1 µg/mL (≈ 1.12 µM) and the MIC90 [5] was 2 µg/mL (≈ 2.24 µM). For the same compound, the “MIC Range” value [6] was 0.5-8, the MIC50 [6] was 1 µg/mL (≈ 1.12 µM) and the MIC90 [6] was 8 µg/mL (≈ 8.95 µM). The MFC ([7]; Candida albicans, read-out: MFC) was 0.5 µg/mL (≈ 0.559 µM), the “MIC Range” value [8] was 1-2 and the MIC50 [8] was 1 µg/mL (≈ 1.12 µM). The MIC90 [8] was 2 µg/mL (≈ 2.24 µM), the “MFC Range” value [9] was 0.5-16 and the MFC50 [9] was 1 µg/mL (≈ 1.12 µM). For the same compound, the MFC90 [9] was 8 µg/mL (≈ 8.95 µM), the “MIC Range” value [10] was 1-4 and the MIC50 [10] was 2 µg/mL (≈ 2.24 µM). For the same compound, the MIC90 [10] was 4 µg/mL (≈ 4.47 µM), the “MIC Range” value [11] was 1-4 and the MIC50 [11] was 2 µg/mL (≈ 2.24 µM). The MIC90 [11] was 2 µg/mL (≈ 2.24 µM), the MIC50 ([12]; Candida albicans, ATCC10231, M19 medium, read-out: MIC50) was 0.18 µg/mL (≈ 0.201 µM) and the MIC50 ([12]; Candida albicans, ATCC10231, Müller-Hinton medium, read-out: MIC50) was 0.06 µg/mL (≈ 0.0671 µM). The “MFC Range” value [13] was 0.5-2, the MFC50 [13] was 1 µg/mL (≈ 1.12 µM) and the MFC90 [13] was 2 µg/mL (≈ 2.24 µM). The MFC [13, 19] was 1 (5×) and 2, the “MIC Range” value [14] was 0.25-2 and the MIC50 [14] was 1 µg/mL (≈ 1.12 µM). The MIC90 [14] was 2 µg/mL (≈ 2.24 µM), the MIC [14, 19] was 1 (5×) and 2 and the MFC50 [15] was 2 µg/mL (≈ 2.24 µM). For the same compound, the MFC90 [15] was 4 µg/mL (≈ 4.47 µM), the MFC50 [16] was 1 µg/mL (≈ 1.12 µM) and the MFC90 [16] was > 4 µg/mL. The “MFC Range” value [17] was 1-4, the MFC50 [17] was 2 µg/mL (≈ 2.24 µM) and the MFC90 [17] was > 4 µg/mL.
